From US4990510A, “Substituted indoloquinoxalines” (Leif Lundblad, priority 1986, dated 1991)
In brackets after ≈: the same amount, converted by molar mass. Where a name gives a salt, the structure may show the parent alone.

Assays:
[1] = tested on: Herpes simplex type 1 and 2; assay: Herpes simplex virus tissue culture test (human amnion AV3-cells), cytopathogenic effect; assay type: cell-based, Herpes simplex virus type 1 and 2; conditions: for EC50: Human alphaherpesvirus 1, Table 1, read-out: Herpes Simplex tissue culture OL50 (concentration for 50% survival); for Herpes Simplex tissue culture OL50 (concentration for 50% survival): Table 1
Procedure: (§1) The virus strains were obtained from the National Bacteriological Laboratory, Stockholm. Herpes simplex type 1 and 2 were passaged intracerebrally in mice. For mouse experiments male mice 2-3 weeks old were used. Intracerebral infection was carried out by introducing the syringe 3 mm above the eye to a depth of approximately 3 mm. 0.03 ml virus suspension was injected above one eye and the substance above the other. Control groups obtained on one hand injection with physiological saline and on the other hand virus suspension.
Tissue culture experiments took place with human amnion AV3-cells. The cells were grown in glass-tubes (12×100 mm) in Eagles medium containing Earles salt solution and 10% of calf-serum. Tubes with a full-grown homogenous layer of cells were infected with virus (0.15 ml) and the virus was allowed to adsorb to cells for 1 hour at 37° C. The tubes were treated with substance dissolved in medium 24 hours and 0 hour before infection. Medium containing test-substance was changed every second day throughout the experiment. In each test a series of concentrations of the test-substance was investigated simultaneously so that about 50% reduction in cytopatogenic effect could be established (ED50).

[2] = Acute toxicity (LD50) in mice; assay type: in vivo; conditions: for LD50: mouse, in vivo
Procedure: (§2) Experiments with mice have also been carried out. LD50 intraperitoneally is of the order 1000 mg/kg and about 100 mg/kg intravenously. […] were inocculated with 5 millions mouse ascites tumor cells intraperitoneally. 80 mg/kg of B219 were given daily for ten days. 2 mice died 22 days after treatment, 8 mice survived the whole test period (3 months). All controls were then dead. In two experiments with ascites lymphoma cells in mice a survival time of 50.9 days was obtained in the first experiment and 45.6 days in the second. The survival time for the controls , was 16.2 and 16.1 days respectively.

HeHrl-cells = assay: Growth/killing of Burkitt lymphoma HeHrl-cells (HeHr); assay type: cell-based; conditions: FIGS. 1 and 2
Procedure: (§3) Burkitt lymphoma cells were obtained from professor Georg Klein, Karolinska Institutet. HeHrl-cells contain Epstein-Barr virus antigen on the surface of the cells while Raji cells contain the same antigen in the nucleus. The cells were grown in RPMI 1640 medium in the presence of 15% of fetal calf-serum, 2mM glutamine, 200 mg/1 penicillin and 200 mg/1 of streptomycine. L 1210 cells (mouse leukemia) were obtained from Dr. Miklos Degre, Rikshospitalet, Oslo. These cells were grown in RPMI 1640 medium with 10% horse serum.

Raji cells = assay: Growth/killing of Burkitt lymphoma Raji-cells; assay type: cell-based; conditions: FIGS. 1 and 3
Procedure: as §3

osteogenic sarcoma cells = assay: Growth inhibition of osteogenic sarcoma cells; assay type: cell-based; conditions: after 6 days test with 1 mg/1
Procedure: (§4) Also osteogenic sarcoma cells and giant tumor cells (strain T4) were inhibited to 90% in their growth after 6 days test with 1 mg/1.

[3] = tested on: herpes simplex virus type 1; assay: Virus mixed with B196, with or without dialysis, injected intracerebrally into mice (FIG. 4); assay type: in vivo, herpes simplex virus type 1 in mice
Procedure: as §1
In the experiments shown in FIG. 4 various concentrations of B-196 were mixed with herpes simplex virus type 1 and injected intracerebrally into mice immediately at or after dialysis, at 4° C. over night. No survivors were recorded in control groups.

[4] = tested on: giant tumor cells (strain T4); assay: Growth inhibition of giant tumor cells (strain T4); assay type: cell-based; conditions: after 6 days test with 1 mg/1
Procedure: as §4

[5] = tested on: herpes simplex virus type 1; assay: Virus inactivation after incubation with B196, infectivity by intracerebral injection in mice (FIG. 5); assay type: in vivo, herpes simplex virus type 1 in mice; conditions: 75 and 150 μg/ml, 4° C.
Procedure: In the experiments shown in FIG. 5 two concentrations of B-196 (75 and 150 μg/ml) were incubated for different times at 4° C. with herpes simplex virus type 1 and the infectivity of the mixtures were determined by intracerebral injection in mice Control virus was incubated at 4° C. for the same period of time. No survivors were registered in these groups.

ascites lymphoma cells = assay: Ascites lymphoma survival experiments in mice; assay type: in vivo
Procedure: as §2

[6] = tested on: mouse ascites tumor cells; assay: Mouse ascites tumor survival experiment; assay type: in vivo; conditions: 80 mg/kg daily for ten days
Procedure: as §2

herpes virus = conditions: literature; cited from earlier work

## Cc1ccc2c(c1)c1nc3ccccc3nc1n2CCN(C)C [Example 4, 9-methyl-6-(N,N-dimethylaminoethyl)-6H-indolo(2,3-b)quinoxaline]
[1]
  EC50: 1 µg/mL (≈ 3.29 µM)
[2]; Table 1
  LD50: > 200 mg/kg

## CN(C)CCn1c2ccc(Cl)cc2c2nc3ccccc3nc21.Cl [Example 5, 9-chloro-6-(N,N-dimethylaminoethyl)-6H-indolo(2,3-b)-quinoxaline-HCl]
[1]
  EC50: 1 µg/mL
[2]; Table 1, listed as 9
  LD50 mouse: > 250 mg/kg
[2]; Table 1
  LD50: 180 mg/kg

## Cc1cc2nc3c4cc(Br)ccc4n(CCN(C)C)c3nc2cc1C [Example 6, 2,3-dimethyl-9-bromo-6-(N,N-dimethylaminoethyl)-6H-indolo-(2,3-b)quinoxalin]
[1]
  EC50: < 0.5 µg/mL
[2]; Table 1
  LD50: > 250 mg/kg

## Cc1ccc2c(c1)c1nc3ccccc3nc1n2CCN(C)C [Example 8]
[1]
  Herpes Simplex tissue culture OL50 (concentration for 50% survival): 1 µg/mL
[2]; Table 1
  LD50 mouse: > 200 mg/kg

## Cc1ccc2c(c1)c1nc3ccccc3nc1n2CCN(C)C [Example 10, 9-methyl-6-(N,N-dimethylaminoethyl)-6H-indolo(2,3-b)-quinoxaline-ICl]
[1]
  Herpes Simplex tissue culture OL50 (concentration for 50% survival): 0.5 µg/mL
[2]; Table 1
  LD50 mouse: 220 mg/kg

## CN(C)CCn1c2ccc(Br)cc2c2nc3ccccc3nc21 [Example B196, 9-bromo-6(N,N-dimethylaminoethyl)-6H-indolo(2,3-b)-quinoxaline . HCl]
HeHrl-cells
  sensitivity / killing of HeHrl-cells: rapidly killed
Raji cells
  sensitivity / killing of Raji-cells: rapidly killed
Osteogenic sarcoma cells
  inhibition of growth, osteogenic sarcoma cells: 90%
[3]; virus mixed with B196 before injection, increases from 0
  survival rate: 100%
[3]; virus-substance mixture subjected to dialysis before injection
  effect on survival rate after dialysis: almost equally pronounced
[4]
  inhibition of growth, giant tumor cells (strain T4): 90%
[5]
  inactivation of HSV1-virus vs. time: virus slowly is inactivated

## Cc1cc2nc3c4cc(Br)ccc4n(CCN(C)C)c3nc2cc1C [Example B219]
Ascites lymphoma cells; first experiment, controls 16.2 days
  survival time, first experiment: 50.9 days
Ascites lymphoma cells; second experiment, controls 16.1 days
  survival time, second experiment: 45.6 days
[6]; 5 millions ascites tumor cells intraperitoneally
  mice died 22 days after treatment: 2 mice
[6]; 3 months, all controls dead
  mice survived the whole test period: 8 mice

## O=C(O)CP(=O)(O)O [phosphonoacetic acid]
Herpes virus
  activity against herpes virus: active against herpes virus

## O=C(O)P(=O)(O)O [phosphonoformic acid]
Herpes virus
  activity against herpes virus: active against herpes virus
